Measured values from patent publication US20240218079A1, “PLASMA KALLIKREIN ANTIBODIES AND USES THEREOF” (Astria Therapeutics, Inc., priority 2021, published 2024).
Where a name gives a salt, the structure may show the parent alone. Read-outs that look alike come from different tables or passages of the source. Values belong to the compound of their own block, whether it stands above or below them. Peptide text beside a SMILES is read from it.

Legend:
Format in all cases: biochemical
Cathepsin G = target: T1, Cathepsin G (Homo sapiens, UniProt P08311); assay: Serine protease inhibition assay: Cathepsin G; conditions: control compound, 10-dose 3-fold serial dilution starting at 10 μM or 100 uM
T1 sequence (P08311 21-244): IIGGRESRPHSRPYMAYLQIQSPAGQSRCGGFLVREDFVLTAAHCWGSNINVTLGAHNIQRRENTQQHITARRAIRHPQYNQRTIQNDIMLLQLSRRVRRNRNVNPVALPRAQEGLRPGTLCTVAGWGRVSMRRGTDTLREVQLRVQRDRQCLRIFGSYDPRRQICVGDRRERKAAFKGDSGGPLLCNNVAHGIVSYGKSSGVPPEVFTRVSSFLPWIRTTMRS
Procedure: (§1) Control compounds were tested in a 10-dose assay with 3-fold serial dilution starting at 10 μM or 100 uM (tPA, Matriptase 2, Kallikrein 5, Kallikrein 2, Kallikrein 1, Granzyme B, and APC). The protease activities were monitored as a time-course measurement of the increase in fluorescence signal from a fluorescently-labeled peptide substrate, and the initial linear portion of the signal slope (signal/min) was analyzed. % Enzyme activity for antibody titrations were calculated respective to vehicle controls in presence of PBS buffer as 100% Activity.
(§2) Empty cells indicate no inhibition or compound activity that could not be fit to an IC50 curve. The IC50 value higher than 1 μM was estimated based on the best curve fitting available.

Granzyme B = Granzyme B (Homo sapiens, UniProt P10144); assay: Serine protease inhibition assay: Granzyme B; conditions: control compound, 10-dose 3-fold serial dilution starting at 10 μM or 100 uM
Procedure: as §1, §2

Kallikrein 1 = Kallikrein 1 (Homo sapiens, UniProt P06870); assay: Serine protease inhibition assay: Kallikrein 1; conditions: control compound, 10-dose 3-fold serial dilution starting at 10 μM or 100 uM
Procedure: as §1, §2

Factor XIIa = target: T2, Factor XIIa (Homo sapiens, UniProt P00748); assay: Serine protease inhibition assay: Factor XIIa; conditions: control compound, 10-dose 3-fold serial dilution starting at 10 μM or 100 uM
T2 sequence (P00748 373-615 limits assumed): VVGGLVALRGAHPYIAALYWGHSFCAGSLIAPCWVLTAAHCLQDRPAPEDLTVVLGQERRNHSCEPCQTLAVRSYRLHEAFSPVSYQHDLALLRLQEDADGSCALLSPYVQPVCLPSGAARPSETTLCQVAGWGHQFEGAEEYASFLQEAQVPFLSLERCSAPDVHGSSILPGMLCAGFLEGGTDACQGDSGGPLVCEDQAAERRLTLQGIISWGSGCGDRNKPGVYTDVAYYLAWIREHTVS
Procedure: as §1, §2

Factor VIIa = target: T3, Factor VIIa (Homo sapiens, UniProt P08709); assay: Serine protease inhibition assay: Factor VIIa; conditions: control compound, 10-dose 3-fold serial dilution starting at 10 μM or 100 uM
T3 sequence (P08709 213-466 limits assumed): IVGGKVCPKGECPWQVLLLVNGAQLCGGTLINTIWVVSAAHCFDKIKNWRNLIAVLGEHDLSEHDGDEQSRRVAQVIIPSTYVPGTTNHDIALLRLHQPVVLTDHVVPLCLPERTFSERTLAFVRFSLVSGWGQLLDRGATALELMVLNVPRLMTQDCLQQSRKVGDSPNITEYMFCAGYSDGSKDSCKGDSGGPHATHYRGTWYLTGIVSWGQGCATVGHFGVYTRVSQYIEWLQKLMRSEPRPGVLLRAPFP
T3 sequence (P08709 61-212 limits assumed): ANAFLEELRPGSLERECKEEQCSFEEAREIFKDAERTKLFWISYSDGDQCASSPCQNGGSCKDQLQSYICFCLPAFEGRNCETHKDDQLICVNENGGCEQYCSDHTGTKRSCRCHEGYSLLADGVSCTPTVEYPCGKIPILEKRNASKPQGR
Procedure: as §1, §2

Plasmin = Plasmin (Homo sapiens, UniProt P00747); assay: Serine protease inhibition assay: Plasmin; conditions: control compound, 10-dose 3-fold serial dilution starting at 10 μM or 100 uM
Procedure: as §1, §2

tPA = tPA (Homo sapiens, UniProt P00750); assay: Serine protease inhibition assay: tPA; conditions: control compound, 10-dose 3-fold serial dilution starting at 10 μM or 100 uM
Procedure: as §1, §2

Hepsin = Hepsin (Homo sapiens, UniProt P05981); assay: Serine protease inhibition assay: Hepsin; conditions: control compound, 10-dose 3-fold serial dilution starting at 10 μM or 100 uM
Procedure: as §1, §2

Urokinase = Urokinase (Homo sapiens, UniProt P00749); assay: Serine protease inhibition assay: Urokinase; conditions: control compound, 10-dose 3-fold serial dilution starting at 10 μM or 100 uM
Procedure: as §1, §2

Activated Protein C = Activated Protein C (Homo sapiens, UniProt P04070); assay: Serine protease inhibition assay: Activated Protein C; conditions: control compound, 10-dose 3-fold serial dilution starting at 10 μM or 100 uM
Procedure: as §1, §2

Kallikrein 12 = target: T4, Kallikrein 12 (Homo sapiens, UniProt Q9UKR0); assay: Serine protease inhibition assay: Kallikrein 12; conditions: control compound, 10-dose 3-fold serial dilution starting at 10 μM or 100 uM
T4 sequence (Q9UKR0 18-248): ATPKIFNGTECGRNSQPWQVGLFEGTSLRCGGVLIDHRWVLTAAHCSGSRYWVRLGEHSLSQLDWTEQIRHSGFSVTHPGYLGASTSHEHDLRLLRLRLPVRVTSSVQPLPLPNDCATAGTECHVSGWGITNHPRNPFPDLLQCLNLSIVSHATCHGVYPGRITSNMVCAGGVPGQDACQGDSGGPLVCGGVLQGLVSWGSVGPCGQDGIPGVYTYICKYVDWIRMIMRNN
Procedure: as §1, §2

Kallikrein 5 = target: T5, Kallikrein 5 (Homo sapiens, UniProt Q9Y337); assay: Serine protease inhibition assay: Kallikrein 5; conditions: control compound, 10-dose 3-fold serial dilution starting at 10 μM or 100 uM
T5 sequence (Q9Y337 23-293): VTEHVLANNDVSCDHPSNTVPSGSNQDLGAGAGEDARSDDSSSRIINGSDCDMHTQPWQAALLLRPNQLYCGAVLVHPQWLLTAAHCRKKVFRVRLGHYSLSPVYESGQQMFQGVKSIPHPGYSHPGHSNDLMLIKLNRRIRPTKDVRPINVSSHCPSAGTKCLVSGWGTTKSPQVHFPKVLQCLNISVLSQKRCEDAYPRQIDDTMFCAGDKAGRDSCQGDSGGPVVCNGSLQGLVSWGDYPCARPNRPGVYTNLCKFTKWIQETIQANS
Procedure: as §1, §2

Kallikrein 2 = Kallikrein 2 (Homo sapiens, UniProt P20151); assay: Serine protease inhibition assay: Kallikrein 2; conditions: control compound, 10-dose 3-fold serial dilution starting at 10 μM or 100 uM
Procedure: as §1, §2

trypsin, human pancrease = assay: Trypsin inhibition assay; conditions: 0.25 nM trypsin, PFR-AMC, 2 hours
Procedure: Fluorescence intensity was measured every 5 minutes. Gabexate mesylate was used as a positive control, in a dilution series starting at 1 μM. The assay was performed in duplicate.

Thrombin a = Thrombin a (Homo sapiens, UniProt P00734); assay: Serine protease inhibition assay: Thrombin a; conditions: control compound, 10-dose 3-fold serial dilution starting at 10 μM or 100 uM
Procedure: as §1, §2

Matriptase 2 = target: T6, Matriptase 2 (Homo sapiens, UniProt Q8IU80); assay: Serine protease inhibition assay: Matriptase 2; conditions: control compound, 10-dose 3-fold serial dilution starting at 10 μM or 100 uM
T6 sequence (Q8IU80 1-811): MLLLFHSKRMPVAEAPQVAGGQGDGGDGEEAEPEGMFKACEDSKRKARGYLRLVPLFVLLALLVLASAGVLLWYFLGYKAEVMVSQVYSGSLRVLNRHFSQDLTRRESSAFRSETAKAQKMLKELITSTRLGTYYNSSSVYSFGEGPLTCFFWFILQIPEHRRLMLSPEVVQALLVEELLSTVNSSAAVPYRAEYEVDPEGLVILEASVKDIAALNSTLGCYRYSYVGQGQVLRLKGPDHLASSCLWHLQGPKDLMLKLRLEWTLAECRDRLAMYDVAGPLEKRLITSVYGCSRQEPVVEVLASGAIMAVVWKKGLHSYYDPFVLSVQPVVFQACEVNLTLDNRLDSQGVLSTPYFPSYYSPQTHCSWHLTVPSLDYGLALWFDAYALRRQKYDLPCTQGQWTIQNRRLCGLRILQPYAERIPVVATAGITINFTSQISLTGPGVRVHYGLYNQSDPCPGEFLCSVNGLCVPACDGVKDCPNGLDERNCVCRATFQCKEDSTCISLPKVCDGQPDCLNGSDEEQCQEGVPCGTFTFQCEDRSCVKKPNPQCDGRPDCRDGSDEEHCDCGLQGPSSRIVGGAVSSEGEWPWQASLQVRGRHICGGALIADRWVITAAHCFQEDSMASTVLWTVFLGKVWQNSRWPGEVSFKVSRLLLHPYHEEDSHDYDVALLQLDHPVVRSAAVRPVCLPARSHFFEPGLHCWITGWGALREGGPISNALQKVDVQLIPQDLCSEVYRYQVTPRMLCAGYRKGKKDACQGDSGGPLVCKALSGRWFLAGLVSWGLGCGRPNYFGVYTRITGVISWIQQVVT
Procedure: as §1, §2

Sequence of Granzyme B (P10144 21-247, species assumed): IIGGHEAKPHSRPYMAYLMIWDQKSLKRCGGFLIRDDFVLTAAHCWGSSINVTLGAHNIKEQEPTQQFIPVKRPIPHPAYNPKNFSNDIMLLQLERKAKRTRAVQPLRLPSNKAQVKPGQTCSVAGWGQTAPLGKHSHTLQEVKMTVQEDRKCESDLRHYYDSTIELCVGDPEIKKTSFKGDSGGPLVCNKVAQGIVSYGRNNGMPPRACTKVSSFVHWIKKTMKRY
Sequence of Plasmin (P00747 581-810 limits assumed, species assumed): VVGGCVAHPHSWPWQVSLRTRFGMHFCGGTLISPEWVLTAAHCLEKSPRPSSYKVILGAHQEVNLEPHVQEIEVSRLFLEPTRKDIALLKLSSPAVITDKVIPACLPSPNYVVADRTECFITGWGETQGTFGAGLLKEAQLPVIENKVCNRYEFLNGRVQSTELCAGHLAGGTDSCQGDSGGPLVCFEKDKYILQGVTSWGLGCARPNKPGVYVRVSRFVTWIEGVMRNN
Sequence of Plasmin (P00747 97-580 limits assumed, species assumed): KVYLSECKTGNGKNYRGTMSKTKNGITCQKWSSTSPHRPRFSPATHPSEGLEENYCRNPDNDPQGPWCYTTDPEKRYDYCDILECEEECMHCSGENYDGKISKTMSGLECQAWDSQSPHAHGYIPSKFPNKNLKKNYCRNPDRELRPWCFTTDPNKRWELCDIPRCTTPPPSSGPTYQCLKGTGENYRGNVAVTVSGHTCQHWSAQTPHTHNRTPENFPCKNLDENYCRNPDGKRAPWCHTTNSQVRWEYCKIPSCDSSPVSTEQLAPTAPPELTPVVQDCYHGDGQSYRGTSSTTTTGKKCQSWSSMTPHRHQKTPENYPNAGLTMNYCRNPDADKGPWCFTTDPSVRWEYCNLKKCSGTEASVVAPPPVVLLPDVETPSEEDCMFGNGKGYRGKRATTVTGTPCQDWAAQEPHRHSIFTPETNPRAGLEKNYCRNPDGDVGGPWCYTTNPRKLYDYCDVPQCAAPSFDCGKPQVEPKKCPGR
Sequence of tPA (P00750 36-562, species assumed): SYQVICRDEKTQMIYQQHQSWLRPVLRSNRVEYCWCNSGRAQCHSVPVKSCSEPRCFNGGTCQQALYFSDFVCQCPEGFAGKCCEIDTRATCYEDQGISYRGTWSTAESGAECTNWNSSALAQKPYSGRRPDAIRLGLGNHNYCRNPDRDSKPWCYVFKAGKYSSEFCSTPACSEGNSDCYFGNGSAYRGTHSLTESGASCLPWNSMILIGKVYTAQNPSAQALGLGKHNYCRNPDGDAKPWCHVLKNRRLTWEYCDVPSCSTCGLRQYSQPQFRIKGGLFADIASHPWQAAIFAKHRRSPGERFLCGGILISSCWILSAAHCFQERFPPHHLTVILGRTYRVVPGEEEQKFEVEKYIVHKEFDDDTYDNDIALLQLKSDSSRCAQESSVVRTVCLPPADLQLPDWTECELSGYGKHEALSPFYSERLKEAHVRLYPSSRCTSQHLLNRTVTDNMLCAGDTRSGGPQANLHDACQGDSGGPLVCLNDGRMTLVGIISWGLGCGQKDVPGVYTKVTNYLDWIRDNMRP
Sequence of Kallikrein 1 (P06870 25-262, species assumed): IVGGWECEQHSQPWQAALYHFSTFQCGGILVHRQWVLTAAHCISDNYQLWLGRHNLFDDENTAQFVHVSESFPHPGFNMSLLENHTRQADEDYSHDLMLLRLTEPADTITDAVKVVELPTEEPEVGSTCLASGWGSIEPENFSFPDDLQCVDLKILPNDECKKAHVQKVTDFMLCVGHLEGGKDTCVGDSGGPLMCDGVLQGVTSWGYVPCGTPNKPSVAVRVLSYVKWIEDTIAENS
Sequence of Hepsin (P05981 whole entry): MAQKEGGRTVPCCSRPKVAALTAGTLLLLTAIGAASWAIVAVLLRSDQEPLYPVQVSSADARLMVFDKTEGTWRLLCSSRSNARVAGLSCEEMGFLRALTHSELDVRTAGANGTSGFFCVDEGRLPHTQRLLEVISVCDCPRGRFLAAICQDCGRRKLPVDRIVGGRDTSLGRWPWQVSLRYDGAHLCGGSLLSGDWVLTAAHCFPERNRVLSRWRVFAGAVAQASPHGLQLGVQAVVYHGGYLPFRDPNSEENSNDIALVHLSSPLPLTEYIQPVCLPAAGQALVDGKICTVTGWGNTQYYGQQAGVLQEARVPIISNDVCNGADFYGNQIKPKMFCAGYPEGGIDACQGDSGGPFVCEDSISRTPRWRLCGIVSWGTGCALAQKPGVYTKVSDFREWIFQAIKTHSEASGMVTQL
Sequence of Kallikrein 2 (P20151 25-261, species assumed): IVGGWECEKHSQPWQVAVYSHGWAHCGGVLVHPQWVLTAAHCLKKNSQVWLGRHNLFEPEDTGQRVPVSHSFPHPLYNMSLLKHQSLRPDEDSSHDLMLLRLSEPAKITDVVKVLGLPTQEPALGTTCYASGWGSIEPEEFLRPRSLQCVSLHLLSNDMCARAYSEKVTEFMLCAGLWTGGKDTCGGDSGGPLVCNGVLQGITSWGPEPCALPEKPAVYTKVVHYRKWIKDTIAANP
Sequence of Activated Protein C (P04070 212-461 limits assumed): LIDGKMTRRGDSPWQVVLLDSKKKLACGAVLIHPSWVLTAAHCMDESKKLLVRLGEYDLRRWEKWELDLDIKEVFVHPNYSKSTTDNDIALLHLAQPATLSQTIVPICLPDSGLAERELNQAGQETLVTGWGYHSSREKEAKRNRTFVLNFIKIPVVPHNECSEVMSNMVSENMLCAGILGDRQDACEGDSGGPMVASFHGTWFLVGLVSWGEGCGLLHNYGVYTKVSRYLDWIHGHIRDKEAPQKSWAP
Sequence of Activated Protein C (P04070 43-197 limits assumed): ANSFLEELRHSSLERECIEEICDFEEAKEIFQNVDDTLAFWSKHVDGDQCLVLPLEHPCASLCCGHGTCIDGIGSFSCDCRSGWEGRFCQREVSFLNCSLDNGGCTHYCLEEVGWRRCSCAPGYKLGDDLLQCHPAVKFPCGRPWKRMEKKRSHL

IC50 (Cathepsin G): 4090 nM
Compound: CC(C)C[C@H](NC(=O)[C@@H](NC(=O)N[C@@H](Cc1ccccc1)C(=O)O)[C@@H]1CCN=C(N)N1)C(=O)N[C@H](C=O)Cc1ccccc1 [Chymostatin]

IC50 (Granzyme B): 178 nM
Compound: CC[C@H](C)[C@H](NC(C)=O)C(=O)N[C@@H](CCC(=O)O)C(=O)N[C@H](C(=O)N[C@H](C=O)CC(=O)O)[C@@H](C)O [IETD-CHO] (Ac-IETD-aldehyde; N-terminus assumed)

IC50 (Kallikrein 1): 2990 nM
Compound: CC(=O)N[C@@H](CC(C)C)C(=O)N[C@@H](CC(C)C)C(=O)N[C@H](C=O)CCCNC(=N)N [Leupeptin]

IC50 (Factor XIIa): 23.2 nM
Compound: N=C(N)c1ccc2cc(OC(=O)c3ccc(N=C(N)N)cc3)ccc2c1 [Nafamostat mesylate]

IC50 (Factor VIIa): 141 nM
Compound: N=C(N)c1ccc2nc(-c3cc(CC(=O)N[C@@H](CC(=O)O)C(=O)O)cc(-c4cc(S(N)(=O)=O)ccc4O)c3O)[nH]c2c1 [PCI 27483]

Compound: Gabexate mesylate [Gabexate mesylate (GM)]
IC50 (Plasmin): 253 nM
IC50 (tPA): 1060 nM
IC50 (Hepsin): 51 nM
IC50 (Urokinase): 16.5 nM
IC50 (Activated Protein C): 64.8 nM
IC50 (Kallikrein 12): 32.5 nM
IC50 (Kallikrein 5): 8730 nM
IC50 (Kallikrein 2): 139 nM
IC50 (trypsin, human pancrease; read-out: Compound IC50 (M) Data 1): 2.13e-09 M
IC50 (trypsin, human pancrease; read-out: Compound IC50 (M) Data 2): 2.33e-09 M
IC50 (Thrombin a): 837 nM
IC50 (Matriptase 2): 201 nM
